Values of other authors, collected in PubChem BioAssay AID1259409 (Chemical Carcinogenesis Research Information System (CCRIS), 2018).

Test system: rodent chemically induced tumor inhibition, incidence and multiplicity
Experiment: CCRIS tumor inhibitor studies
Conditions: for tumour outcome (control, treated, inhibition, significance): Species: RAT

C=CCSSCC=C
tumour outcome (control, treated, inhibition, significance) (Carcinogen: 2-AMINO-1-METHYL-6-PHENYLIMIDAZO[4,5-B]PYRIDINE [105650-23-5], Dose [Inhibitor]: 200 PPM IN DIET FOR 4 WK BEGINNING WK PRIOR TO FIRST CARCINOGEN DOSE (STUDY DURATION: 25 WK), Route [Inhibitor]: ORAL, Strain/Sex: SPRAGUE-DAWLEY/FEMALE, Target Tissue: Type of Lesion: MAMMARY GLAND: FIBROADENOMA OR DUCTAL CARCINOMA, Dose [Carcinogen]: 85 MG/KG BW 2X/WK FOR 4 WK (STUDY DURATION: 25 WK), Promoter: NONE): 68%, 52%, 24%, not significant
tumour outcome (control, treated, inhibition, significance) (Carcinogen: 2-AMINO-1-METHYL-6-PHENYLIMIDAZO[4,5-B]PYRIDINE, 105650-23-5, Dose [Inhibitor]: 0, 200 PPM IN HIGH FAT DIET FOR 4 WK BEGINNING 1 WK PRIOR TO CARCINOGEN TREATMENT (STUDY DURATION: 25 WK), Route [Inhibitor]: ORAL, Strain/Sex: SPRAGUE-DAWLEY/FEMALE, Target Tissue: Type of Lesion: MAMMARY GLAND: CARCINOMA, Dose [Carcinogen]: 85 MG/KG BW IN CORN OIL 8 TIMES IN 10 D, Promoter: NONE USED): 21/31 (68%), 16/31 (52%), 24%, not calculated
tumour outcome (control, treated, inhibition, significance) (Carcinogen: 2-AMINO-1-METHYL-6-PHENYLIMIDAZO[4,5-B]PYRIDINE, 105650-23-5, Dose [Inhibitor]: 0, 200 PPM IN HIGH FAT DIET FOR 4 WK BEGINNING 1 WK PRIOR TO CARCINOGEN TREATMENT (STUDY DURATION: 25 WK), Route [Inhibitor]: ORAL, Strain/Sex: SPRAGUE-DAWLEY/FEMALE, Target Tissue: Type of Lesion: MAMMARY GLAND: FIBROADENOMA, Dose [Carcinogen]: 85 MG/KG BW IN CORN OIL 8 TIMES IN 10 D, Promoter: NONE USED): 3/31 (10%), 0/31 (0%), 100%, not calculated
tumour outcome (control, treated, inhibition, significance) (Carcinogen: 7,12-DIMETHYLBENZ[A]ANTHRACENE, 57-97-6, Dose [Inhibitor]: 0, 1.8 MMOL/KG BW IN CORN OIL 96, 48 AND 24 HR PRIOR TO CARCINOGEN TREATMENT (STUDY DURATION: 25 WK), Route [Inhibitor]: GAVAGE, Strain/Sex: SPRAGUE-DAWLEY/FEMALE, Target Tissue: Type of Lesion: MAMMARY GLAND: ADENOCARCINOMA, Dose [Carcinogen]: 10 MG ONCE, Promoter: NONE USED): 92%, 36%, 61%, p<0.05
tumour outcome (control, treated, inhibition, significance) (Carcinogen: AZOXYMETHANE, 25843-45-2, Dose [Inhibitor]: 0, 100 PPM IN DIET BEGINNING 2 WK PRIOR TO CARCINOGEN TREATMENT AND CONTINUING FOR DURATION OF STUDY (STUDY DURATION: 56, Route [Inhibitor]: ORAL, Strain/Sex: F344/MALE, Target Tissue: Type of Lesion: COLON: INVASIVE ADENOCARCINOMA, Dose [Carcinogen]: 15 MG/KG 1/WK FOR 2 WK, Promoter: NONE USED): 34%, 11%, 68%, p<0.05
tumour outcome (control, treated, inhibition, significance) (Carcinogen: AZOXYMETHANE, 25843-45-2, Dose [Inhibitor]: 0, 100 PPM IN DIET BEGINNING 2 WK PRIOR TO CARCINOGEN TREATMENT AND CONTINUING FOR DURATION OF STUDY (STUDY DURATION: 56, Route [Inhibitor]: ORAL, Strain/Sex: F344/MALE, Target Tissue: Type of Lesion: COLON: NONINVASIVE ADENOCARCINOMA, Dose [Carcinogen]: 15 MG/KG 1/WK FOR 2 WK, Promoter: NONE USED): 53%, 53%, 0%, not significant
tumour outcome (control, treated, inhibition, significance) (Carcinogen: AZOXYMETHANE, 25843-45-2, Dose [Inhibitor]: 0, 200 PPM IN DIET BEGINNING 2 WK PRIOR TO CARCINOGEN TREATMENT AND CONTINUING FOR DURATION OF STUDY (STUDY DURATION: 56, Route [Inhibitor]: ORAL, Strain/Sex: F344/MALE, Target Tissue: Type of Lesion: COLON: INVASIVE ADENOCARCINOMA, Dose [Carcinogen]: 15 MG/KG 1/WK FOR 2 WK, Promoter: NONE USED): 34%, 6%, 82%, p<0.01
tumour outcome (control, treated, inhibition, significance) (Carcinogen: AZOXYMETHANE, 25843-45-2, Dose [Inhibitor]: 0, 200 PPM IN DIET BEGINNING 2 WK PRIOR TO CARCINOGEN TREATMENT AND CONTINUING FOR DURATION OF STUDY (STUDY DURATION: 56, Route [Inhibitor]: ORAL, Strain/Sex: F344/MALE, Target Tissue: Type of Lesion: COLON: NONINVASIVE ADENOCARCINOMA, Dose [Carcinogen]: 15 MG/KG 1/WK FOR 2 WK, Promoter: NONE USED): 53%, 58%, -9%, not significant
tumour outcome (control, treated, inhibition, significance) (Carcinogen: DIETHYLNITROSAMINE, 55-18-5, N-METHYL-N-NITROSOUREA, 684-93-5, N,N'-DIMETHYLHYDRAZINE, 540-73-8, N-BUTYL-N-(4-HYDR, Carcinogen: DIETHYLNITROSAMINE, 55-18-5, N-METHYL-N-NITROSOUREA, 684-93-5, N,N'-DIMETHYLHYDRAZINE, 540-73-8, N-BUTYL-N-(4-HYDR, Dose [Inhibitor]: 0, 50 MG/KG BW IN CORN OIL 3/WK FOR 6 WK BEGINNING POST CARCINOGEN TREATMENT (STUDY DURATION: 28 WK), Route [Inhibitor]: GAVAGE, Strain/Sex: F344/MALE, Target Tissue: Type of Lesion: KIDNEY: RENAL CELL ADENOMA, Dose [Carcinogen]: 100 MG/KG BW DEN ONCE, 20 MG/KG BW MNU ONCE ON D 2, 5, 8 AND 11, 40 MG/KG BW DMH ON D 14, 17, 20 AND 23, 0.05% BHBN I, Dose [Carcinogen]: 100 MG/KG BW DEN ONCE, 20 MG/KG BW MNU ONCE ON D 2, 5, 8 AND 11, 40 MG/KG BW DMH ON D 14, 17, 20 AND 23, 0.05% BHBN I, Promoter: NONE USED): 4/20 (20%), 0/19 (0%), 100%, not calculated
tumour outcome (control, treated, inhibition, significance) (Carcinogen: DIETHYLNITROSAMINE, 55-18-5, N-METHYL-N-NITROSOUREA, 684-93-5, N,N'-DIMETHYLHYDRAZINE, 540-73-8, N-BUTYL-N-(4-HYDR, Carcinogen: DIETHYLNITROSAMINE, 55-18-5, N-METHYL-N-NITROSOUREA, 684-93-5, N,N'-DIMETHYLHYDRAZINE, 540-73-8, N-BUTYL-N-(4-HYDR, Dose [Inhibitor]: 0, 50 MG/KG BW IN CORN OIL 3/WK FOR 6 WK BEGINNING POST CARCINOGEN TREATMENT (STUDY DURATION: 28 WK), Route [Inhibitor]: GAVAGE, Strain/Sex: F344/MALE, Target Tissue: Type of Lesion: LARGE INTESTINE: ADENOMA, Dose [Carcinogen]: 100 MG/KG BW DEN ONCE, 20 MG/KG BW MNU ONCE ON D 2, 5, 8 AND 11, 40 MG/KG BW DMH ON D 14, 17, 20 AND 23, 0.05% BHBN I, Dose [Carcinogen]: 100 MG/KG BW DEN ONCE, 20 MG/KG BW MNU ONCE ON D 2, 5, 8 AND 11, 40 MG/KG BW DMH ON D 14, 17, 20 AND 23, 0.05% BHBN I, Promoter: NONE USED): 6/20 (30%), 1/19 (5%), 83%, p<0.01
tumour outcome (control, treated, inhibition, significance) (Carcinogen: DIETHYLNITROSAMINE, 55-18-5, N-METHYL-N-NITROSOUREA, 684-93-5, N,N'-DIMETHYLHYDRAZINE, 540-73-8, N-BUTYL-N-(4-HYDR, Carcinogen: DIETHYLNITROSAMINE, 55-18-5, N-METHYL-N-NITROSOUREA, 684-93-5, N,N'-DIMETHYLHYDRAZINE, 540-73-8, N-BUTYL-N-(4-HYDR, Dose [Inhibitor]: 0, 50 MG/KG BW IN CORN OIL 3/WK FOR 6 WK BEGINNING POST CARCINOGEN TREATMENT (STUDY DURATION: 28 WK), Route [Inhibitor]: GAVAGE, Strain/Sex: F344/MALE, Target Tissue: Type of Lesion: LARGE INTESTINE: CARCINOMA, Dose [Carcinogen]: 100 MG/KG BW DEN ONCE, 20 MG/KG BW MNU ONCE ON D 2, 5, 8 AND 11, 40 MG/KG BW DMH ON D 14, 17, 20 AND 23, 0.05% BHBN I, Dose [Carcinogen]: 100 MG/KG BW DEN ONCE, 20 MG/KG BW MNU ONCE ON D 2, 5, 8 AND 11, 40 MG/KG BW DMH ON D 14, 17, 20 AND 23, 0.05% BHBN I, Promoter: NONE USED): 8/20 (40%), 3/19 (16%), 60%, not calculated
tumour outcome (control, treated, inhibition, significance) (Carcinogen: DIETHYLNITROSAMINE, 55-18-5, N-METHYL-NITROSOUREA ;684-93-5, N,N'-DIMETHYLHYDRAZINE, 540-73-8, N-BUTYL-N-(4-HYDROXY, Carcinogen: DIETHYLNITROSAMINE, 55-18-5, N-METHYL-NITROSOUREA ;684-93-5, N,N'-DIMETHYLHYDRAZINE, 540-73-8, N-BUTYL-N-(4-HYDROXY, Dose [Inhibitor]: 0, 50 MG/KG BW IN CORN OIL 3/WK FOR 6 WK BEGINNING POST CARCINOGEN TREATMENT (STUDY DURATION: 28 WK), Route [Inhibitor]: GAVAGE, Strain/Sex: F344/MALE, Target Tissue: Type of Lesion: KIDNEY: NEPHROBLASTOMA, Dose [Carcinogen]: 100 MG/KG BW DEN ONCE, 20 MG/KG BW MNU ONCE ON D 2, 5, 8 AND 11, 40 MG/KG BW DMH ON D 14, 17, 20 AND 23, 0.05% BHBN I, Dose [Carcinogen]: 100 MG/KG BW DEN ONCE, 20 MG/KG BW MNU ONCE ON D 2, 5, 8 AND 11, 40 MG/KG BW DMH ON D 14, 17, 20 AND 23, 0.05% BHBN I, Promoter: NONE USED): 5/20 (25%), 0/19 (0%), 100%, p<0.05
tumour outcome (control, treated, inhibition, significance) (Carcinogen: DIETHYLNITROSAMINE, 55-18-5, N-METHYL-NITROSOUREA, 684-93-5, N,N'-DIMETHYLHYDRAZINE, 540-73-8, N-BUTYL-N-(4-HYDROX, Carcinogen: DIETHYLNITROSAMINE, 55-18-5, N-METHYL-NITROSOUREA, 684-93-5, N,N'-DIMETHYLHYDRAZINE, 540-73-8, N-BUTYL-N-(4-HYDROX, Dose [Inhibitor]: 0, 50 MG/KG BW IN CORN OIL 3/WK FOR 6 WK BEGINNING POST CARCINOGEN TREATMENT (STUDY DURATION: 28 WK), Route [Inhibitor]: GAVAGE, Strain/Sex: F344/MALE, Target Tissue: Type of Lesion: KIDNEY: RENAL CELL CARCINOMA, Dose [Carcinogen]: 100 MG/KG BW DEN ONCE, 20 MG/KG BW MNU ONCE ON D 2, 5, 8 AND 11, 40 MG/KG BW DMH ON D 14, 17, 20 AND 23, 0.05% BHBN I, Dose [Carcinogen]: 100 MG/KG BW DEN ONCE, 20 MG/KG BW MNU ONCE ON D 2, 5, 8 AND 11, 40 MG/KG BW DMH ON D 14, 17, 20 AND 23, 0.05% BHBN I, Promoter: NONE USED): 1/20 (5%), 0/19 (0%), 100%, not calculated
tumour outcome (control, treated, inhibition, significance) (Carcinogen: N-METHYL-N-NITROSOUREA, 684-93-5, Dose [Inhibitor]: 0, 57 UMOL/KG DIET FOR 25 WK BEGINNING 2 WK PRIOR TO CARCINOGEN DOSE (STUDY DURATION: 25 WK), Route [Inhibitor]: ORAL, Strain/Sex: SPRAGUE-DAWLEY/FEMALE, Target Tissue: Type of Lesion: MAMMARY GLAND: TUMOR, Dose [Carcinogen]: 15 MG/KG BW ONCE, Promoter: NONE USED): 81%, 38%, 53%, p<0.05
outcome (Carcinogen: N-methyl-N-nitrosourea (684-93-5), Dose [Inhibitor]: 0, 150 mg/kg bw by gavage 2 x a wk for 16 wks of hormones and MNU, study duration 16 wks, Dose [Inhibitor]: 0, 150 mg/kg bw by gavage 2 x a wk for 16 wks of hormones and MNU, study duration 16 wks, Route [Inhibitor]: Oral, Species: Rat, Strain/Sex: Sprague-Dawley/Male, Target Tissue: Type of Lesion: Prostate: Prostatic intraepithelial neoplasia, Dose [Carcinogen]: 150 mg/kg bw once, Promoter: Cyproterone acetate (427-51-0) and testosterone propionate (57-85-2)): dorsolateral prostate: 40% (hormones + mnu); 10% (hormones + mnu + diallyl sulfi
